Values joined by “and” are separate entries in the source; they are usually repeats but may differ in a detail not shown here. Identical values can stand only once.
Assay: xn = mol fraction of the nth substance listed

CCN(CC)CCO.Cl + OCC(O)CO
101 kPa, x1 = 0.333
Conditions | viscosity [mPa·s]
296.97 K | 433.4
298.15 K | 513.1
302.02 K | 339.9
303.15 K | 351.5
306.82 K | 263.5
308.15 K | 251.3
312.13 K | 195.5
313.15 K | 182.9
317.31 K | 153
318.15 K | 138
322.61 K | 110.5
323.15 K | 104.2

BrC(Br)Br + OCCCl
viscosity [mPa·s], 101.3 kPa
Conditions | x1 = 0.099 | x1 = 0.198 | x1 = 0.301 | x1 = 0.396 | x1 = 0.498 | x1 = 0.595 | x1 = 0.702 | x1 = 0.801 | x1 = 0.896
298.15 K | 2.878 | 2.817 | 2.587 | 2.446 | 2.3 | 2.179 | 2.067 | 1.97 | 1.915
303.15 K | 2.532 | 2.487 | 2.297 | 2.191 | 2.08 | 1.982 | 1.89 | 1.825 | 1.779
308.15 K | 2.237 | 2.21 | 2.055 | 1.974 | 1.884 | 1.814 | 1.746 | 1.694 | 1.666

CCN(CC)CCO.Cl + OCCO
viscosity [mPa·s], 101 kPa
Conditions | 293.15 K | 298.15 K | 303.15 K | 308.15 K | 313.15 K | 318.15 K | 323.15 K
x1 = 0.25 | 37.6 | – | 29.6 | – | 23.6 | – | 19.1
x1 = 0.333 | – | 50.45 | 40.68 | 32.04 | 26.28 | 21.97 | 18.51

CCN(CC)CCO.Cl + OCCOCCO
101 kPa, x2 = 0.75
Conditions | viscosity [mPa·s]
293.15 K | 56.09
303.15 K | 50.09
313.15 K | 35.93
323.15 K | 25.49

C=Cc1ccccc1 + c1ccccc1
viscosity [mPa·s], 101 kPa
Conditions | x2 = 0.1362 | x2 = 0.2498 | x2 = 0.3047 | x2 = 0.4109 | x2 = 0.5207 | x2 = 0.5834 | x2 = 0.7114 | x2 = 0.7924 | x2 = 0.8831
298.15 K | 0.672 | 0.654 | 0.645 | 0.633 | 0.623 | 0.618 | 0.608 | 0.605 | 0.604
303.15 K | 0.629 | 0.61 | 0.6 | 0.589 | 0.577 | 0.57 | 0.56 | 0.556 | 0.555
308.15 K | 0.59 | 0.57 | 0.56 | 0.548 | 0.537 | 0.53 | 0.52 | 0.515 | 0.514
313.15 K | 0.54 | 0.518 | 0.51 | 0.499 | 0.487 | 0.48 | 0.47 | 0.466 | 0.465

CC1CCCC(O)C1 (stereo unspecified) + c1ccccc1
293.15 K, 101 kPa
Conditions | viscosity
x2 = 0.3 | 4.2 mPa·s
x2 = 0.5 | 2.1 mPa·s
x2 = 0.6 | 1.6 mPa·s
x2 = 0.7 | 1.5 mPa·s
x2 = 0.8 | 1.2 mPa·s and 1.1 mPa·s

CCC(C)(C)OC + c1ccccc1
viscosity [mPa·s], 100 kPa
Conditions | x1 = 0.051 | x1 = 0.1986 | x1 = 0.2998 | x1 = 0.3995 | x1 = 0.4992 | x1 = 0.5905 | x1 = 0.6974 | x1 = 0.8012 | x1 = 0.8948 | x1 = 0.9496
293.15 K | 0.623 | 0.579 | 0.553 | 0.53 | 0.51 | 0.493 | 0.475 | 0.46 | 0.451 | 0.445
303.15 K | 0.547 | 0.513 | 0.493 | 0.475 | 0.461 | 0.449 | 0.436 | 0.427 | 0.422 | 0.418
313.15 K | 0.478 | 0.447 | 0.43 | 0.414 | 0.402 | 0.392 | 0.381 | 0.375 | 0.372 | 0.37

CCCCCCCCO + c1ccccc1
viscosity [mPa·s]
Conditions | 293.15 K | 298.15 K | 303.15 K | 313.15 K | 323.15 K
100 kPa, x2 = 0.0834 | 7.415 | – | 5.248 | 3.685 | 2.768
100 kPa, x2 = 0.1711 | 6.045 | – | 4.294 | 2.932 | 2.235
100 kPa, x2 = 0.2512 | 5.033 | – | 3.532 | 2.393 | 1.821
100 kPa, x2 = 0.3602 | 3.894 | – | 2.682 | 1.807 | 1.365
100 kPa, x2 = 0.4552 | 3.069 | – | 2.085 | 1.4 | 1.062
100 kPa, x2 = 0.5612 | 2.333 | – | 1.545 | 1.076 | 0.818
100 kPa, x2 = 0.6483 | 1.824 | – | 1.236 | 0.904 | 0.7
100 kPa, x2 = 0.7524 | 1.334 | – | 0.957 | 0.736 | 0.594
100 kPa, x2 = 0.8537 | 0.975 | – | 0.736 | 0.608 | 0.516
100 kPa, x2 = 0.9502 | 0.748 | – | 0.612 | 0.525 | 0.455
101.33 kPa, x1 = 0.2 | – | 0.863 | – | – | 0.57

From the CheMixHub viscosity set
